pIC50: −log10 of the molar value.
How the values were obtained:
human LPA1 = biological target: T1, human LPA1 (Homo sapiens, UniProt Q92633); test: LPA1 calcium flux assay; assay type: cell-based; settings: CHO cells expressing human LPA1, stimulated with 10 nM LPA; read-out: HLPA1 Ca Flux IC50
T1 construct: the full-length cDNA for human LPA1 was obtained by PCR of the reverse transcription reaction; expressed in transfected cells
Outline: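 Antagonism measured as block of 10 nM LPA-evoked calcium rise in stable human LPA1-CHO cells. After overnight serum-free culture and 1 h dye loading at 37 °C (buffer with 0.3% fatty-acid-free albumin), compound was added for 30 min at room temperature. Titration curves gave IC50.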

[1] = system: A2058 human melanoma cells; test: LPA1 chemotaxis assay; assay type: cell-based; settings: LPA 100 nM, read-out: IC50, inhibition of LPA-driven chemotaxis
Procedure: Chemotaxis of the A2058 human melanoma cells was measured using the Neuroprobe ChemoTx® System plates (8 μm pore size, 5.7 mm diameter sites). The filter sites were coated with 0.001% fibronectin (Sigma) in 20 mM Hepes, pH 7.4 and allowed to dry. A2058 cells were serum-starved for 24 hours, then harvested with Cell Stripper and resuspended in DMEM containing 0.1% fatty-acid-free bovine serum albumin (BSA) to a concentration of 1×10^6/ml. Cells were mixed with an equal volume of test compound (2×) in DMEM containing 0.1% fatty-acid-free BSA and incubated at 37° C. for 15 minutes. LPA (100 nM in DMEM containing 0.1% fatty-acid-free BSA) or vehicle was added to each well of the lower chamber and 50 μl of the cell suspension/test compound mix was applied to the upper portion of the ChemoTx plate. Plates were incubated at 37° C. for three hours and then the cells removed from the upper portion by rinsing with PBS and scraping. The filter was dried then stained with HEMA 3 Staining System (Fisher Scientific). The absorbance of the filter was read at 590 nm and IC50s were determined using Symyx Assay Explorer.

nerve-injured mice = settings: pretreatment; cited from earlier work
[2] = system: mouse epithelial renal cell line, MCT; settings: MCT cells, co-treatment with LPA; cited from earlier work
UUO mice = UUO mice treated with antagonist; cited from earlier work
[3] = system: human foetal lung fibroblasts; settings: BAL obtained from IPF patients; cited from earlier work
[4] = system: highly peritoneal metastatic pancreatic cancer cell line; settings: cited from earlier work
[5] = system: pancreatic cancer cell lines; settings: LPA and peritoneal fluid (ascites) from pancreatic cancer patients; cited from earlier work

T1 sequence (Q92633 whole entry): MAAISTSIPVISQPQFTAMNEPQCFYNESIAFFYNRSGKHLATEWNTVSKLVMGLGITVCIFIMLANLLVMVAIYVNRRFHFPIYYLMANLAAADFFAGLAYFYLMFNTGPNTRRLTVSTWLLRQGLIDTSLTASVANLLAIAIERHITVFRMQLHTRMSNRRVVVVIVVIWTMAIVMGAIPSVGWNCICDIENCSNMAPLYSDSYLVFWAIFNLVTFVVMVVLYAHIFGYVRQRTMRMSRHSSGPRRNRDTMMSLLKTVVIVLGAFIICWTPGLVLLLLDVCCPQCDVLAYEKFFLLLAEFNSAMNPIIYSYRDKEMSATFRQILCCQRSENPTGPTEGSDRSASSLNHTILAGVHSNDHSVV

SMILES	pIC50 (human LPA1)	also measured
Cc1noc(-c2ccc(-c3ccc(C4(C(=O)O)CC4)cc3)cc2)c1C(O)CCCc1ccccc1 (single isomer, unassigned) [Compound 1-155, 1-{4′-[4-(1-Hydroxy-4-phenyl-butyl)-3-methyl-isoxazol-5-yl]-biphenyl-4-yl}-cyclopropanecarboxylic acid]	> 6.52	pIC50 [1]: > 7.00
Cc1noc(-c2ccc(-c3ccc(C4(C(=O)O)CC4)cc3)cc2)c1C(O)C(F)(F)CCc1ccccc1 (single isomer, unassigned) [Compound 1-255, 1-{4′-[4-(2,2-Difluoro-1-hydroxy-4-phenyl-butyl)-3-methyl-isoxazol-5-yl]-biphenyl-4-yl}-cyclopropanecarboxylic acid]	> 6.52	pIC50 [1]: > 7.00
Cc1noc(-c2ccc(-c3ccc(C4(C(=O)O)CC4)cc3)cc2)c1C(O)CCCc1ccccc1 (stereo not drawn) [Compound 1-116, 1-{4′-[4-(1-Hydroxy-4-phenyl-butyl)-3-methyl-isoxazol-5-yl]-biphenyl-4-yl}-cyclopropanecarboxylic acid]		pIC50 [1]: > 7.00
Cc1noc(-c2ccc(-c3ccc(C4(C(=O)O)CC4)cc3)cc2)c1C(O)C(F)(F)CCc1ccccc1 (stereo not drawn) [Compound 1-178, 1-{4′-[4-(2,2-Difluoro-1-hydroxy-4-phenyl-butyl)-3-methyl-isoxazol-5-yl]-biphenyl-4-yl}-cyclopropanecarboxylic acid]		pIC50 [1]: > 7.00
Cc1noc(-c2ccc(-c3ccc(C4(C(=O)O)CC4)cc3)cc2)c1Nc1cccc(C(N)=O)n1 [Compound 1-312, 1-{4′-[4-(6-Carbamoyl-pyridin-2-ylamino)-3-methyl-isoxazol-5-yl]-biphenyl-4-yl}-cyclopropanecarboxylic acid]	> 6.52	
Cc1noc(-c2ccc(-c3ccc(C4(C(=O)O)CC4)cc3)cc2)c1Nc1cccc(Br)n1 [Compound 1-313, 1-{4′-[4-(6-Bromo-pyridin-2-ylamino)-3-methyl-isoxazol-5-yl]-biphenyl-4-yl}-cyclopropanecarboxylic acid]	> 6.52	
Cc1noc(-c2ccc(-c3ccc(C4(C(=O)NS(C)(=O)=O)CC4)cc3)cc2)c1[C@@H](COCc1ccccc1)OC(=O)NS(C)(=O)=O [Compound 2-4, N-Sulfonylmethyl carbamic acid (S)-2-benzyloxy-1-{5-[4′-(1-methanesulfonylaminocarbonyl-cyclopropyl)-biphenyl-4-yl]-3-methyl-isoxazol-4-yl}-ethyl ester]	> 6.52	
Cc1ccc(S(=O)(=O)NC(=O)Nc2c(C)noc2-c2ccc(-c3ccc(C4(C(=O)NS(=O)(=O)c5ccc(C)cc5)CC4)cc3)cc2)cc1 [Compound 2-5, 4-Methyl-N-(1-{4′-[3-methyl-4-(3-p-tolunesulfonyl-ureido)-isoxazol-5-yl]-biphenyl-4-yl}-cyclopropanecarbonyl)-benzenesulfonamide]	< 4.30	
Cc1noc(-c2ccc(-c3ccc(C4(C(=O)NS(=O)(=O)C5CC5)CC4)cc3)cc2)c1NC(=O)NS(=O)(=O)C1CC1 [Compound 2-6, Cyclopropanesulfonic acid (1-{4′-[4-(3-cyclopropylsulfonyl-ureido)-3-methyl-isoxazol-5-yl]-biphenyl-4-yl}-cyclopropanecarbonyl)-amide]	4.30 to 6.00	
Cc1cccc(SCC(O)c2c(C)noc2-c2ccc(-c3ccc(C4(C(=O)NS(C)(=O)=O)CC4)cc3)cc2)c1 (stereo not drawn) [Compound 2-13, N-(1-{4′-[4-(1-Hydroxy-2-m-tolylsulfanyl-ethyl)-3-methyl-isoxazol-5-yl]-biphenyl-4-yl}-cyclopropanecarbonyl)-methanesulfonamide]	> 6.52	
COc1cccc(SCC(O)c2c(C)noc2-c2ccc(-c3ccc(C4(C(=O)NS(C)(=O)=O)CC4)cc3)cc2)c1 (stereo not drawn) [Compound 2-14, N-[1-(4′-{4-[1-Hydroxy-2-(3-methoxy-phenylsulfanyl)-ethyl]-3-methyl-isoxazol-5-yl}-biphenyl-4-yl)-cyclopropanecarbonyl]-methanesulfonamide]	6.00 to 6.52	
Cc1noc(-c2ccc(-c3ccc(C4(CC(=O)NS(C)(=O)=O)CC4)cc3)cc2)c1C(CCCc1ccccc1)OC(=O)NS(C)(=O)=O (stereo not drawn) [Compound 2-15, N-Sulfonylmethyl carbamic acid 1-(5-{4′-[1-(2-methanesulfonylamino-2-oxo-ethyl)-cyclopropyl]-biphenyl-4-yl}-3-methyl-isoxazol-4-yl)-4-phenyl-butyl ester]	6.00 to 6.52	
Cc1noc(-c2ccc(-c3ccc(C4(CC(=O)NS(C)(=O)=O)CC4)cc3)cc2)c1C(O)CCCc1ccccc1 (stereo not drawn) [Compound 2-16, N-[2-(1-{4′-[4-(1-Hydroxy-4-phenyl-butyl)-3-methyl-isoxazol-5-yl]-biphenyl-4-yl}-cyclopropyl)-acetyl]-methanesulfonamide]	> 6.52	
C[C@@H](N)[C@H]1CC[C@H](C(=O)Nc2ccncc2)CC1 [Compound Y-27632]		allodynia and hyperalgesia (nerve-injured mice): completely abolished
Cc1noc(-c2ccc(CSCCC(=O)O)cc2)c1NC(=O)OC(C)c1ccccc1Cl (stereo not drawn) [Ki16425]		LPA-induced increase in CTGF expression [2]: almost completely suppressed; development of renal fibrosis in UUO mice (UUO mice): closely resembled the LPA1 (−/−) mice; chemotaxis of human foetal lung fibroblasts induced by BAL from IPF patients [3]: blocked; LPA-induced and ascites-induced invasion activity [4]: blocked; in vitro migration in response to LPA and ascites [5]: effectively blocked

Source: US9624182B2, “Compounds as lysophosphatidic acid receptor antagonists” (Amira Pharmaceuticals, Inc., priority 2009, dated 2017)
